The values that follow are results of earlier work, collected in patent US20230117831A1, “MULTI-FUNCTIONAL CHIMERIC MOLECULES” (THE BROAD INSTITUTE, INC., priority 2020, published 2023).

Several values for one entry are separate records, joined by “and”; a condition that tells them apart may be missing. Equal values may be shown once. Read-outs that look alike come from different tables or passages of the source. Bounds are passed on as bounds.

The target of series [1] is PKCalpha (Homo sapiens, UniProt P17252). Particulars: cited from earlier work.
Series [2] addresses PIK3Cα/PIK3R1 (Homo sapiens, UniProt P42336). The following applies: cited from earlier work.
For series [3], the target named is PKC beta (Homo sapiens, UniProt P05771). Particulars: PKC beta; read-out: Kd; cited from earlier work.
The target in series [4] is PKC gamma (Homo sapiens, UniProt P05129). The following applies: cited from earlier work.
Series [5] deals with PKC delta (Homo sapiens, UniProt Q05655). Particulars: PKC delta; read-out: Kd; cited from earlier work.
The target in series [6] is T1, PKC epsilon (Homo sapiens, UniProt Q02156).
T1 sequence (Q02156 1-737): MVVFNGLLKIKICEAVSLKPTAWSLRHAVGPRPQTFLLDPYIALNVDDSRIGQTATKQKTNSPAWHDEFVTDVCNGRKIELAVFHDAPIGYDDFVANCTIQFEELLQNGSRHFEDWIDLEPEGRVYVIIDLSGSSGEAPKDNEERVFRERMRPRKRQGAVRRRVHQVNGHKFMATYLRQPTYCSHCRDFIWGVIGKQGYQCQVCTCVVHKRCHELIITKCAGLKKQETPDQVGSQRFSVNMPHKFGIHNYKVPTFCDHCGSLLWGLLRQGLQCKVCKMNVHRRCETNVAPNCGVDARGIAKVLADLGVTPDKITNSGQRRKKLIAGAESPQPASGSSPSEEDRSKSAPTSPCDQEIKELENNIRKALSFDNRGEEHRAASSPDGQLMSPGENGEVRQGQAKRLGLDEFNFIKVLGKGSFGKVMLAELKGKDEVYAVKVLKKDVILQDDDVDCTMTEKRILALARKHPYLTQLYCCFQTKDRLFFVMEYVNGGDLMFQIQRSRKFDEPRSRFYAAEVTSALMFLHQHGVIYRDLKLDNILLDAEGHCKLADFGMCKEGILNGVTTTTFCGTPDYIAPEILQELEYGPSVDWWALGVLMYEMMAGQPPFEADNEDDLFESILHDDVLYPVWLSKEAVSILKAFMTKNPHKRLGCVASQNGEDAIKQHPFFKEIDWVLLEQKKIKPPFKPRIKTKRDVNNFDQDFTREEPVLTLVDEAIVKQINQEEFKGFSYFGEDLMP
The following applies: PKC epsilon; read-out: Kd; cited from earlier work.

Series [7] has as its target T2, AurA (AURKA) (Homo sapiens, UniProt O14965).
T2 sequence (O14965 1-403): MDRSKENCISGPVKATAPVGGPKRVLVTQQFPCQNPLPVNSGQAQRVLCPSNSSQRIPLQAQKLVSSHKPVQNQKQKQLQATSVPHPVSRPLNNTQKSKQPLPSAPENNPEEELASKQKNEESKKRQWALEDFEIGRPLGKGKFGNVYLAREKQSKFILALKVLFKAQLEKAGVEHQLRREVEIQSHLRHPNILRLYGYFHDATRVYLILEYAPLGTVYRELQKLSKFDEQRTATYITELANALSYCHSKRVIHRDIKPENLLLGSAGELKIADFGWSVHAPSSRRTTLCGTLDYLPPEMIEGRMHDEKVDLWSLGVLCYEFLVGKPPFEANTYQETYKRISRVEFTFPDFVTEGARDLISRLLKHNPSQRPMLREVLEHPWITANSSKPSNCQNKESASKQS
Particulars: cited from earlier work.

Series [8] has as its target PIK3Cδ/PIK3R1 (Homo sapiens, UniProt O00329). The following applies: cited from earlier work.
Series [9] concerns the target PIK3Cγ (Homo sapiens, UniProt P48736). Particulars: cited from earlier work.

Sequence of PIK3Cα/PIK3R1 (P42336 whole entry): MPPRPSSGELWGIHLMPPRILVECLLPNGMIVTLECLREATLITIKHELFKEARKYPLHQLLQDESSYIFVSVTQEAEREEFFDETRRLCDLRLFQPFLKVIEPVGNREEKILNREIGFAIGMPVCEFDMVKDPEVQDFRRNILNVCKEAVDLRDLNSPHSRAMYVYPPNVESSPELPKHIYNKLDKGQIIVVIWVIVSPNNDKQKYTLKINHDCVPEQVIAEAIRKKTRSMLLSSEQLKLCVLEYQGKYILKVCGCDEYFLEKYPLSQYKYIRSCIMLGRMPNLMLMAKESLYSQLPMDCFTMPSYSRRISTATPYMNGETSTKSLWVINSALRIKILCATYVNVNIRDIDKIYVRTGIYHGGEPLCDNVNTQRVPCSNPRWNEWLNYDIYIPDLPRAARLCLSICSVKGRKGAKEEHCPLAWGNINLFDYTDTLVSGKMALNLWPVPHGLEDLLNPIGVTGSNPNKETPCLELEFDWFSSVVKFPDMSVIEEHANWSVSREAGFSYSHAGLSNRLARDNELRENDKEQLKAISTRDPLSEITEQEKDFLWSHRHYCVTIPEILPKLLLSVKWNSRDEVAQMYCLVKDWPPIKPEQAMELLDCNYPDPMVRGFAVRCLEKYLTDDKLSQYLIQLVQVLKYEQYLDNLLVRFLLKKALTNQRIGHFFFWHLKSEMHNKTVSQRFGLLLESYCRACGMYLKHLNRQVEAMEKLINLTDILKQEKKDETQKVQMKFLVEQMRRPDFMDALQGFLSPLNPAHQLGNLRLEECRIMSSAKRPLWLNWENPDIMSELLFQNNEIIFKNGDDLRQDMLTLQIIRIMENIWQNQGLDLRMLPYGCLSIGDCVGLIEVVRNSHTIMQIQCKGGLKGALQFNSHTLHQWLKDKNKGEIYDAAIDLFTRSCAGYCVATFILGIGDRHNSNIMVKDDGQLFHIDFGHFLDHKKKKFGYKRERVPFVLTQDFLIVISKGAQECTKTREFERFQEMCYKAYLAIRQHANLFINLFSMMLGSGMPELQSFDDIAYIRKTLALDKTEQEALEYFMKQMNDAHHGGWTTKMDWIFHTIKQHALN
Sequence of PIK3Cα/PIK3R1 (P27986 whole entry partner): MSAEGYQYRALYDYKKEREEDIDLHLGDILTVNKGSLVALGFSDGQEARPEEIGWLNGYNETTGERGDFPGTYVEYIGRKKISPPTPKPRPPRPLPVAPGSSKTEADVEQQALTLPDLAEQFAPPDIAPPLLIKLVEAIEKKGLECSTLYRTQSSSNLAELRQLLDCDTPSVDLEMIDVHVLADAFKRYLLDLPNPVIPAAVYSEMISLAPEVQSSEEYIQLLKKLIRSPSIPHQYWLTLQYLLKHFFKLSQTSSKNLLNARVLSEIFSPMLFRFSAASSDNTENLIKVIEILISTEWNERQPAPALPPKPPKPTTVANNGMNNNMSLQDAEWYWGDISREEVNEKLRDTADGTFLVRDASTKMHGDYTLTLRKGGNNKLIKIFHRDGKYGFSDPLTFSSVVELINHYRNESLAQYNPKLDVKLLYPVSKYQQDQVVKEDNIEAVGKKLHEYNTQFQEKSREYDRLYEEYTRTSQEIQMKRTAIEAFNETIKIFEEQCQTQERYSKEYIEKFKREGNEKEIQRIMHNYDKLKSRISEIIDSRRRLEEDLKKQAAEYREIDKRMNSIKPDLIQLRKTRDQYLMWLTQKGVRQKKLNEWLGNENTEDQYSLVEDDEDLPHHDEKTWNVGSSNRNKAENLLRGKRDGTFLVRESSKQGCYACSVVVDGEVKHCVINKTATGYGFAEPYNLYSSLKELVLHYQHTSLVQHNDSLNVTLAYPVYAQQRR
Sequence of PIK3Cδ/PIK3R1 (O00329 whole entry): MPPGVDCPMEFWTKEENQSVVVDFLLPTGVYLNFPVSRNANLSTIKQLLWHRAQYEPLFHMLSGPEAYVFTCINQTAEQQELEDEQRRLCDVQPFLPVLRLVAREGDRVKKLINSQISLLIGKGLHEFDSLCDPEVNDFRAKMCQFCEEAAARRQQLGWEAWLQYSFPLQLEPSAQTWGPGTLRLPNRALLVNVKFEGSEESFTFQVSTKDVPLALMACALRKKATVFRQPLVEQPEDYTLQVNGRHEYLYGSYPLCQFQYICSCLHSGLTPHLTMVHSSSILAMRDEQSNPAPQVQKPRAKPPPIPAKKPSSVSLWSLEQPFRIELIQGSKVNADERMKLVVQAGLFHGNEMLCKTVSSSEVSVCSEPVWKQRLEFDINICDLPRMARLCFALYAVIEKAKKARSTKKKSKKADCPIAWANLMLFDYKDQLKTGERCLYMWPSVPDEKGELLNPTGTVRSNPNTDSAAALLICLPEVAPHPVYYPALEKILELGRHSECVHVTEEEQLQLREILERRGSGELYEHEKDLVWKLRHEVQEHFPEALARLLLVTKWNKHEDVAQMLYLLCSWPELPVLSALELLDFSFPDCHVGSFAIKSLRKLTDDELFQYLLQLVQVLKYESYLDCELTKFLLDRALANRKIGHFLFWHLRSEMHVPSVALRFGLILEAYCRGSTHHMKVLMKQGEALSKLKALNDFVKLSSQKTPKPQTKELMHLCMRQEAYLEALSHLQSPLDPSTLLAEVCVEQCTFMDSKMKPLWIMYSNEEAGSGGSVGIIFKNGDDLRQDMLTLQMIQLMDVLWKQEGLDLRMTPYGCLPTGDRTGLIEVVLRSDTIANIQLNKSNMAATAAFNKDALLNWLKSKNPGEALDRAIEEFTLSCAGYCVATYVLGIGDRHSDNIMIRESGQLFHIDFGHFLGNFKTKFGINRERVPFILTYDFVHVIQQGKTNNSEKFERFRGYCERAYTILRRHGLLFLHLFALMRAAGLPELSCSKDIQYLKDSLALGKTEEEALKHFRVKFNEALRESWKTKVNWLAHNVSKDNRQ
Sequence of PIK3Cδ/PIK3R1 (P27986 whole entry partner): as the sequence (P27986 whole entry partner) above
Sequence of PKC beta (P05771 whole entry): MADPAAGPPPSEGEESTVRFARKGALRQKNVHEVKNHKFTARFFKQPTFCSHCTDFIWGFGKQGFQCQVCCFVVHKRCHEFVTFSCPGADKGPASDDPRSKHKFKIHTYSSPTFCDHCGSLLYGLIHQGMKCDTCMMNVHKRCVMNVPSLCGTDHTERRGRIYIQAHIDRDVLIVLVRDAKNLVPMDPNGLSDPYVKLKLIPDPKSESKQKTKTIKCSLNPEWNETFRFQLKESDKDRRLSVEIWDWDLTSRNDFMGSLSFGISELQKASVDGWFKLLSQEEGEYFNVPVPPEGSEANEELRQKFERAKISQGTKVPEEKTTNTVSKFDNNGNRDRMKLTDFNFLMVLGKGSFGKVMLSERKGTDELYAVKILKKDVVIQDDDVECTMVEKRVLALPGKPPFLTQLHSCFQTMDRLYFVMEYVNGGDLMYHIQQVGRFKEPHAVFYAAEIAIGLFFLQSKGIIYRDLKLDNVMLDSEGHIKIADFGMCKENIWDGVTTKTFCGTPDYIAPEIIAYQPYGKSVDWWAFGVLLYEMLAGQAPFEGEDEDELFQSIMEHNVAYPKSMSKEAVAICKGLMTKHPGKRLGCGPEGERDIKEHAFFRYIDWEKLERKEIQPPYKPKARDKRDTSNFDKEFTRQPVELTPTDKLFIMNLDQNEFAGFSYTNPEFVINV
Sequence of PKC delta (Q05655 whole entry): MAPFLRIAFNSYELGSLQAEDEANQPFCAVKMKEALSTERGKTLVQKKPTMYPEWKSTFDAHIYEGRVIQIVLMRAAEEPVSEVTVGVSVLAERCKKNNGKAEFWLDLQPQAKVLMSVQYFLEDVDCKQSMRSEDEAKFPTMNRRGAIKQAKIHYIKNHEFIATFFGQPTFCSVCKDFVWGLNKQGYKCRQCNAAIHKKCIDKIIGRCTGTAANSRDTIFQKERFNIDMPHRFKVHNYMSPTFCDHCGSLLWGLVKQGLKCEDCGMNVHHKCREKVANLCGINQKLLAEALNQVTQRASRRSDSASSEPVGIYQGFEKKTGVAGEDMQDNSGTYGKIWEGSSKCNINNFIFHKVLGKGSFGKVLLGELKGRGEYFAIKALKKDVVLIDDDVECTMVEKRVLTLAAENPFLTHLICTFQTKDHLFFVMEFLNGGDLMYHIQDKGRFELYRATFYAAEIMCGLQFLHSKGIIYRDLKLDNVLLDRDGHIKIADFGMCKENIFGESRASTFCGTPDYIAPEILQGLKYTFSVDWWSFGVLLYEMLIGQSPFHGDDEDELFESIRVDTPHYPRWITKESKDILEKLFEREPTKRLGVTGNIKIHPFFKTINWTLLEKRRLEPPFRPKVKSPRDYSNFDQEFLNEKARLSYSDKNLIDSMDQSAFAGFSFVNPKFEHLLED

As usually defined, the Kd is the constant that tells how readily two partners part at equilibrium. Take `CC(C)[C@H]1C(=O)N[C@H](CO)Cc2ccc(NC(=O)c3ccccc3)cc2N1C`: in series [1] (PKC alpha, read-out: Kd), the Kd is 174 nM.
For the compound `CC(C)[C@H]1C(=O)NC(CO)Cc2ccc(NCc3ccccc3)cc2N1C` (stereo partly drawn), in series [1] (PKC alpha, read-out: Kd), the Kd was 3.8 nM.
Take `CCCCCCCCC#Cc1ccc(-c2ccc3c(c2)C[C@@H](CO)NC(=O)[C@H](C(C)C)N3C)cc1`: the Kd in series [1] (PKC alpha, read-out: Kd) is 703 nM.
Turning to `Nc1cc(C(F)(F)F)c(-c2cc(N3CCOCC3)nc(N3CCOCC3)n2)cn1` [Buparlisib], in [2], the ka is 3.26e+06 M⁻¹ s⁻¹, the kd was 0.0209 s⁻¹, the “log(ka)” value was 6.51 and the “log(kd)” value is given as −1.68.
Consider `CCCCCCCCCCc1ccc2c(c1)C[C@@H](CO)NC(=O)[C@H](C(C)C)N2C`, for which the Kd in [1] is 46.6 nM; in series [3], 58.2 nM; in series [4], 140 nM; in [5] it was 185 nM; in series [6], 187 nM.
As to `CC(C)[C@H]1C(=O)N[C@H](CO)Cc2ccccc2N1C`, the Kd in [1] (PKC alpha, read-out: Kd) is 334 nM.
For the compound `CC(C)[C@H]1C(=O)N[C@H](CO)Cc2ccc(NC(=O)/C=C/c3ccccc3)cc2N1C`, the Kd in [1] (PKC alpha, read-out: Kd) is 114 nM.
As to `CC(C)[C@H]1C(=O)N[C@H](CO)Cc2cc(NC(=O)CCCCc3ccc(CCC(F)(F)C(F)(F)C(F)(F)C(F)(F)C(F)(F)C(F)(F)F)cc3)ccc2N1C`, in [1] (PKC alpha, read-out: Kd), the Kd is 9.2 nM.
With `CC(C)[C@H]1C(=O)NC(CO)Cc2ccc(NC(=O)c3ccc(-c4ccccc4)cc3)cc2N1C` (stereo partly drawn), in series [1] (PKC alpha, read-out: Kd), the Kd was 25.9 nM.
On to `CC(C)[C@H]1C(=O)N[C@H](CO)Cc2ccc(NC(=O)CCCCc3ccccc3)cc2N1C`, for which the Kd in series [1] (PKC alpha, read-out: Kd) is 18.3 nM.
With `O=C(O)[C@]1(Cc2cccc(Nc3nccs3)n2)CC[C@@H](Oc2cccc(Cl)c2F)CC1` [MK5108], in series [7], the ka was 3.41e+06 M⁻¹ s⁻¹; the kd was 0.0155 s⁻¹; the “log(ka)” value was 6.53 and 6.56; the “log(kd)” value is −1.81.
As to `CC(C)[C@H]1C(=O)N[C@H](CO)Cc2cc(NC(=O)CCCCc3ccc(C(F)(F)F)cc3)ccc2N1C`, in series [1], the Kd is 12.5 nM.
Turning to `COc1ccc(-c2ccc3c(N4CCOC[C@@H]4C)nc(N4CCOC[C@@H]4C)nc3n2)cc1CO` [AZD-8055], in [2], the equilibrium dissociation constant (Kd) is 9.4 nM, the ka was 3.61e+06 M⁻¹ s⁻¹, the kd was 0.0339 s⁻¹ and the “log(ka)” value is on record as 6.56. In addition, in series [2], the “log(kd)” value is reported as −1.47 and the “residence time (τ)” value was 29 s. Moreover, in [8], the Kd is 33.6 nM, the ka is 1.93e+06 M⁻¹ s⁻¹, the kd was 0.065 s⁻¹ and the “log(ka)” value is 6.29. Further, in series [8], the “log(kd)” value is reported as −1.19 and the “residence time (τ)” value was 15 s. Moreover, in series [9], the Kd was 92.5 nM, the ka was 1.59e+06 M⁻¹ s⁻¹, the kd was 0.147 s⁻¹ and the “log(ka)” value is 6.20. Further, in series [9], the “log(kd)” value is reported as −0.83 and the “residence time (τ)” value is 7 s.
As for `Cc1nc(NC(=O)N2CCC[C@H]2C(N)=O)sc1-c1ccnc(C(C)(C)C(F)(F)F)c1` [Alpelisib], in series [8], the ka was 6.16e+06 M⁻¹ s⁻¹, the kd was 0.0641 s⁻¹, the “log(ka)” value is on record as 6.79 and the “log(kd)” value is recorded as −1.19. In series [9], the ka is 4.05e+06 M⁻¹ s⁻¹, the kd is 0.0395 s⁻¹, the “log(ka)” value was 6.61 and the “log(kd)” value is −1.40.
Regarding `CC(C)[C@H]1C(=O)N[C@H](CO)Cc2cc(NC(=O)CCCCc3ccc(/C=C/C(F)(F)C(F)(F)C(F)(F)C(F)(F)C(F)(F)C(F)(F)F)cc3)ccc2N1C`, the Kd in series [1] (PKC alpha, read-out: Kd) was 11.2 nM.
Turning to `CC(C)C1C(=O)NC(CO)Cc2cc(NC(=O)C=CC=Cc3ccccc3)ccc2N1C` (stereo not drawn), in series [1] (PKC alpha, read-out: Kd), the Kd is 15.8 nM.
Regarding `CCCCCCCCC#Cc1cccc(-c2ccc3c(c2)C[C@@H](CO)NC(=O)[C@H](C(C)C)N3C)c1`, the Kd in series [1] (PKC alpha, read-out: Kd) was 309 nM.
Regarding `CCCCCCCCC#Cc1cccc(-c2ccc3c(c2)N(C)[C@@H](C(C)C)C(=O)N[C@H](CO)C3)c1`, the Kd in series [1] (PKC alpha, read-out: Kd) is 5.9 nM.
For the compound `CCCCCCCCc1cccc(C(=O)Nc2ccc3c(c2)N(C)[C@@H](C(C)C)C(=O)NC(CO)C3)c1` (stereo partly drawn), the Kd in series [1] (PKC alpha, read-out: Kd) is 3.2 nM.
For `CC(C)[C@H]1C(=O)N[C@H](CO)Cc2ccc(-c3ccc(NC(=O)OC(C)(C)C)cc3)cc2N1C`, the Kd in [1] (PKC alpha, read-out: Kd) was 31.5 nM.
In the case of `Cn1c(=O)n(-c2ccc(C(C)(C)C#N)cc2)c2c3cc(-c4cnc5ccccc5c4)ccc3ncc21` [Dactolisib], in series [2], the ka was 2.3e+06 M⁻¹ s⁻¹, the kd was 0.0228 s⁻¹, the “log(ka)” value was 6.36 and the “log(kd)” value is −1.64. Moreover, in [8], the ka was 1.52e+06 M⁻¹ s⁻¹, the kd is 0.0327 s⁻¹, the “log(ka)” value was 6.16 and the “log(kd)” value was −1.49. Also, in [9], the ka is 589000 M⁻¹ s⁻¹, the kd was 0.0433 s⁻¹, the “log(ka)” value is recorded as 5.77 and the “log(kd)” value is −1.36.
`CCCCCCCCCCc1cccc2c1C[C@@H](CO)NC(=O)[C@H](C(C)C)N2C`: the Kd was 513 nM in series [1] (PKC alpha, read-out: Kd); 309 nM in series [3]; 409 nM in [4] (PKC gamma, read-out: Kd); 169 nM in series [5]; 60 nM in series [6].
`CCCCCCCCc1ccc2c3c(c[nH]c13)CC[C@@H](CO)NC(=O)[C@H](C(C)C)N2C`: the Kd in [1] (PKC alpha, read-out: Kd) is 0.5 nM; in series [3], 0.4 nM; in [4] (PKC gamma, read-out: Kd) it was 1.2 nM; in series [5], 0.8 nM; in series [6], 1 nM.
As to `CCCCCCCCC#Cc1ccccc1-c1ccc2c(c1)N(C)[C@@H](C(C)C)C(=O)NC(CO)C2` (stereo partly drawn), the Kd in [1] (PKC alpha, read-out: Kd) was 3.6 nM.
As for `CCCCC#Cc1cccc(-c2ccc3c(c2)N(C)[C@@H](C(C)C)C(=O)N[C@H](CO)C3)c1`, the Kd in [1] (PKC alpha, read-out: Kd) was 3 nM.
For the compound `CCCCc1ccc(C(=O)Nc2ccc3c(c2)N(C)[C@@H](C(C)C)C(=O)NC(CO)C3)cc1` (stereo partly drawn), the Kd in series [1] (PKC alpha, read-out: Kd) is 9.5 nM.
With `CC(C)[C@H]1C(=O)N[C@H](CO)Cc2cc(NC(=O)CCCCc3ccccc3)ccc2N1C`, the Kd in series [1] (PKC alpha, read-out: Kd) is 34.2 nM.
As for `CCCCC#Cc1cccc(C(=O)Nc2ccc3c(c2)N(C)[C@@H](C(C)C)C(=O)NC(CO)C3)c1` (stereo partly drawn), in series [1] (PKC alpha, read-out: Kd), the Kd is 4.1 nM.
For the compound `CO[C@@H](C(=O)N1Cc2n[nH]c(NC(=O)c3ccc(N4CCN(C)CC4)cc3)c2C1)c1ccccc1` [Danusertib], in series [7], the ka is 512000 M⁻¹ s⁻¹, the kd was 0.000868 s⁻¹, the “log(ka)” value is 5.71 and the “log(kd)” value is −3.06.
In the case of `CCCCC#Cc1ccccc1-c1ccc2c(c1)N(C)[C@@H](C(C)C)C(=O)NC(CO)C2` (stereo partly drawn), the Kd in series [1] (PKC alpha, read-out: Kd) was 3.1 nM.
On to `CC(C)[C@H]1C(=O)N[C@H](CO)Cc2cc(NC(=O)CCCCc3cc(C(F)(F)F)cc(C(F)(F)F)c3)ccc2N1C`, for which the Kd in series [1] (PKC alpha, read-out: Kd) is 7.8 nM.
For the compound `CC(C)[C@H]1C(=O)NC(CO)Cc2ccc(NC(=O)CCc3ccccc3)cc2N1C` (stereo partly drawn), the Kd in series [1] (PKC alpha, read-out: Kd) is 116 nM.
`CCCCCCCCC#Cc1ccc(-c2ccc3c(c2)N(C)[C@@H](C(C)C)C(=O)N[C@H](CO)C3)s1`: the Kd in series [1] (PKC alpha, read-out: Kd) is 25 nM.
Turning to `CCCCCCCCC#Cc1cccc2c1C[C@@H](CO)NC(=O)[C@H](C(C)C)N2C`, the Kd was 4530 nM in series [1] (PKC alpha, read-out: Kd); 1690 nM in series [3]; above 10000 nM in [4] (PKC gamma, read-out: Kd); 2100 nM in series [5]; 2560 nM in series [6].
As to `CC(C)[C@H]1C(=O)N[C@H](CO)Cc2ccc(NC(=O)/C=C/C=C/c3ccccc3)cc2N1C`, the Kd in series [1] (PKC alpha, read-out: Kd) is 49.8 nM.
Consider `CCCCCCCCC#Cc1ccc(-c2ccc3c(c2)C[C@@H](CO)NC(=O)[C@H](C(C)C)N3C)s1`, for which the dissociation constant (Kd) in series [1] (PKC alpha, read-out: Kd) was 396 nM.
